Results taken from PMC6522510 (Nature Communications, 2019).

How the values were obtained:
MV4-11 = assay: Primary HTS, single concentration, Cell Titer Glo; format: cell-based, human; details: approximately 10 µM, 72 h, relative to positive control
CMS [1] = assay: Secondary dose-response HTS, Cell Titer Glo; format: cell-based, human; details: secondary HTS, 72 h, average of triplicate; read-out: EC50 CMS
U937 [2] = assay: Secondary dose-response HTS, Cell Titer Glo; format: cell-based, human; details: secondary HTS, 72 h, average of triplicate; read-out: EC50 U937
CMK [3] = assay: Secondary dose-response HTS, Cell Titer Glo; format: cell-based, human; details: secondary HTS, 72 h, average of triplicate; read-out: EC50 CMK
CMK [4] = assay: Primary HTS, single concentration, Cell Titer Glo; format: cell-based, human; details: approximately 10 µM, 72 h, relative to positive control
CHRF288-11 [5] = assay: Primary HTS, single concentration, Cell Titer Glo; format: cell-based, human; details: approximately 10 µM, 72 h, relative to positive control
MOLM-13 = assay: Primary HTS, single concentration, Cell Titer Glo; format: cell-based, human; details: approximately 10 µM, 72 h, relative to positive control
CMS [6] = assay: Primary HTS, single concentration, Cell Titer Glo; format: cell-based, human; details: approximately 10 µM, 72 h, relative to positive control
CHRF288-11 [7] = assay: Secondary dose-response HTS, Cell Titer Glo; format: cell-based, human; details: secondary HTS, 72 h, average of triplicate; read-out: EC50 CHRF288-11
ML-2 = assay: Primary HTS, single concentration, Cell Titer Glo; format: cell-based, human; details: approximately 10 µM, 72 h, relative to positive control
M07e = assay: Primary HTS, single concentration, Cell Titer Glo; format: cell-based, human; details: approximately 10 µM, 72 h, relative to positive control
U937 [8] = assay: Primary HTS, single concentration, Cell Titer Glo; format: cell-based, human; details: approximately 10 µM, 72 h, relative to positive control
[9] = set-up: method as in Wang et al., Biol Blood Marrow Transplant 2014 and others; details: higher cellular concentrations; ref Wang et al., Biol Blood Marrow Transplant 2014 and others; cited from earlier work
[10] = system: Mll PTD/wt:Flt3 ITD/ITD double knock-in primary transplant blasts (bone marrow, spleen); assay: Accumulation in primary murine blasts; format: cell-based, mouse; details: blasts from bone marrow or spleen
Experimental: Cells were washed twice with ice-cold PBS; cell pellets were solubilized in 400 µL 1 N NaOH and agitated (300 rpm) at room temperature for 2 h. Then samples were neutralized with […] 1 M HCl; a 25 µL aliquot of lysate was used to estimate protein concentration using a Pierce BCA protein assay kit (Thermo Scientific). Total radioactivity was measured by a Tri-Carb 4810TR liquid scintillation counter (Perkin-Elmer) after mixing the sample with 4 mL of Emulsifier Safe (Perkin Elmer); the results were normalized to total protein content as measured by a Pierce BCA protein assay kit. Three independent experiments were performed in triplicate.
Bone marrow and splenocytes were isolated from mice transplanted with dKI AML and CG-V617 AMKL. Following red blood cells lysis, dKI AML leukemic blasts from vehicle treated mice were evaluated for accumulation of cytarabine and gemcitabine using the uptake assay described above.
Supplementary Figure 5. Accumulation of cytarabine and gemcitabine .
unlabeled and [3H]-cytarabine (Ara- C) or gemcitabine ( Gem ). Intracellular Ara- C, Gem ,
scintillation counting and normalized to protein levels. Representative chromatogram for
as disintegrations per minute (DPM) over complete run time. (c) Percentage of total
independent experiments (N=9). (d) Accumulation was determined in cell lysate of bone
double knock-in primary transplant recipient. […]

AML cell lines = assay: Intracellular drug and phosphorylated metabolites by HPLC with liquid scintillation counting; details: 2 h, 1 µM

Structure (SMILES) | MV4-11 %inh (MV4-11) | EC50 (CMS [1]) | EC50 (U937 [2]) | EC50 (CMK [3]) | CMK %inh (CMK [4]) | CHRF288-11 %inh (CHRF288-11 [5]) | MOLM-13 %inh (MOLM-13) | CMS %inh (CMS [6]) | EC50 (CHRF288-11 [7]) | ML-2 %inh (ML-2) | M07e %inh (M07e) | U937 %inh (U937 [8]) | cellular elimination half-life (biphasic) [9] | accumulation of dFdCTP versus Ara-CTP [10] | accumulation of dFdCTP compared to Ara-CTP (AML cell lines; AML cell lines) | share of the total intracellular accumulation (AML cell lines; all cell lines evaluated)
CC(/C=C/C(=O)NO)=C\[C@@H](C)C(=O)c1ccc(N(C)C)cc1 [Trichostatin A] | 81% | 40 nM | 40 nM | 50 nM | 137% | 190% | 98% | 111% | 40 nM | 60% | 147% | 83% | – | – | – | –
Nc1ccn([C@@H]2O[C@H](COP(=O)(O)OP(=O)(O)OP(=O)(O)O)[C@@H](O)C2(F)F)c(=O)n1 [dFdCTP, gemcitabine triphosphate] | – | – | – | – | – | – | – | – | – | – | – | – | 15 to 24 h | 2.4–5.3 fold | 7.3–61.2 fold | 58–81%
